According to US20250009774A1, “COMPOSITIONS AND METHODS USING A COMBINATION OF OLEUROPEIN AND MAGNESIUM” (SOCIETE DES PRODUITS NESTLE S.A., priority 2021, published 2025):

Test system: myotubes differentiated from C2C12 cells
Test: mitochondrial calcium elevation (mitochondrial aequorin luminescence) on caffeine stimulation
Type: cell-based
Settings: 1 mM Mg^2+ + 3 μM Oea; C2C12-derived myotubes; 5 mM caffeine; n=32; P<0.05 Student's t-test; FIG. 1
Procedure: To test the effect of Oleuropein aglycone (Oea), Mg^2+ and their combination on mitochondrial activation in living cells, the inventors measured mitochondrial calcium elevation in myotubes differentiated from C2C12 cells.
C2C12 cells were purchased from ATCC. C2C12 cells were seeded in 384-well plates at a density of 4500 cells per well in DMEM medium, high glucose (Gibco)+10% fetal calf serum. Myotubes were differentiated from C2C12 cells by growing the cells in DMEM containing 2% horse serum, for 6 days.
Mitochondrial calcium measurements were carried out using myotubes infected with the adenovirus (from Sirion biotech) expressing the luminescent mitochondrially-targeted calcium sensor mitochondrial mutated aequorin (Montero et al., 2004). […] Myotubes were stimulated with 5 mM of caffeine and the total calcium transiting during stimulation was calculated as the area under the curve, during caffeine stimulation. Luminescence was measured at the FLIPR cell imaging reader (Molecular devices). Calibration of the luminescence data into Calcium concentration was carried out using an algorithm as described previously (Alvarez & Montero, 2002). Custom module analysis based on Excel (Microsoft) and GraphPad Prism 7.02 (GraphPad) software was used for quantification.

C/C=C1/C(O)OC=C(C(=O)OC)[C@H]1CC(=O)OCCc1ccc(O)c(O)c1 (mixture of isomers) [Oleuropein aglycone]
mitochondrial calcium rise: real measured effect of the combination vs expected theoretical effect (sum of Oea effect and Mg^2+ effect): synergies with Mg^2+ to activate mitochondria
